The values that follow come from patent US10336775B2 (Asceneuron SA, priority 2014, dated 2019).

Bounds are passed on as bounds.

His-Tagged hOGA (human O-GlcNAcase), sequence (O60502 whole entry): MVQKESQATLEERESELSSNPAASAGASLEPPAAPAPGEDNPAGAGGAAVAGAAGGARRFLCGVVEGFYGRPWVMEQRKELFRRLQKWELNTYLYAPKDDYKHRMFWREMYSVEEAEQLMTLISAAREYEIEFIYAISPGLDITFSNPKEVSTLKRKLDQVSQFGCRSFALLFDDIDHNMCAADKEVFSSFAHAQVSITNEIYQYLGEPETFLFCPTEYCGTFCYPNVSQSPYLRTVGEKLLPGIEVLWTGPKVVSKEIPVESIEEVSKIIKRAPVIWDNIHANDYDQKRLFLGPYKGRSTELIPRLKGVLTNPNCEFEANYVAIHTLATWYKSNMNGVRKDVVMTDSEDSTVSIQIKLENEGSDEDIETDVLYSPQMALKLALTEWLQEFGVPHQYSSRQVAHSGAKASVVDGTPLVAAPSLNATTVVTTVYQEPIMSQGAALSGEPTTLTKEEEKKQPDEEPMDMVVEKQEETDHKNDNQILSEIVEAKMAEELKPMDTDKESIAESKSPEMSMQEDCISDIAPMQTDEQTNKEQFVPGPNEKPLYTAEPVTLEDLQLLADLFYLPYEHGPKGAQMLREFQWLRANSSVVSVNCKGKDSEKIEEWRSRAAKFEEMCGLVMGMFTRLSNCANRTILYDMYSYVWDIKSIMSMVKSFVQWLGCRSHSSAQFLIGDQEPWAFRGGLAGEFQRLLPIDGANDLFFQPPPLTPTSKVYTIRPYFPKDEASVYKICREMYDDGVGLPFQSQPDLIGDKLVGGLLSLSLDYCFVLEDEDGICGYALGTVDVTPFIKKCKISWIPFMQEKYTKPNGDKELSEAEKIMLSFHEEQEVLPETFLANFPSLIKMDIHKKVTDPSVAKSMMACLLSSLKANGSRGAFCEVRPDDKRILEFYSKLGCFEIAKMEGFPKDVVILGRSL

The first assay has as its target His-Tagged hOGA (human O-GlcNAcase) (Homo sapiens (Human), UniProt O60502). The experiment in a line: Human O-GlcNAcase enzyme inhibition assay (Example B01). The class given is biochemical.
Details: not given
A word on the IC50: it is the concentration at which inhibition is half-maximal. `CC(c1ccc2c(c1)OCO2)N1CCN(c2ccc([N+](=O)[O-])cn2)CC1` (stereo not drawn) [Example 55, 1-(1-(benzo[d][1,3]dioxol-5-yl)ethyl)-4-(5-nitropyridin-2-yl)piperazine] gave an IC50 of 5e-08 to 2e-07 M.

The assay is the same for the next values; noted with them: OGA IC50 (M), OGA enzyme inhibition assay; activity range classes defined in μM.
In the case of `CC(c1ccc2nccnc2c1)N1CCN(c2nc3cnccc3s2)CC1` (racemic) [Example 140, 2-(4-(1-(quinoxalin-6-yl)ethyl)piperazin-1-yl)thiazolo[4,5-c]pyridine], the half-inhibitory concentration (IC50) fell in the range of 2e-07 to 1e-06 M.

Still in this assay, the particulars now being: OGA enzyme inhibition assay; activity range classes defined in μM; read-out: OGA IC50.
Consider `C[C@@H](c1ccc2c(c1)OCO2)N1CCN(c2ncc(C3(O)CCCC3)cn2)CC1` [Example 181, (S)-1-(2-(4-(1-(benzo[d][1,3]dioxol-5-yl)ethyl)piperazin-1-yl)pyrimidin-5-yl)cyclopentan-1-ol], for which the half-maximal inhibitory concentration (IC50) is under 5e-08 M. On the same count and under the same terms, the same measure for `C[C@@H](c1ccc2c(c1)OCO2)N1CCN(c2nc3c(s2)CNCC3)CC1` [Example 182, (S)-2-(4-(1-(benzo[d][1,3]dioxol-5-yl)ethyl)piperazin-1-yl)-4,5,6,7-tetrahydrothiazolo[5,4-c]pyridine]: under 5e-08 M; for `CC(c1ccc2c(c1)OCO2)N1CCN(c2nnc(NC(=O)c3ccc(Cl)cc3)s2)CC1` (racemic) [Example 110, N-(5-(4-(1-(benzo[d][1,3]dioxol-5-yl)ethyl)piperazin-1-yl)-1,3,4-thiadiazol-2-yl)-4-chlorobenzamide]: 5e-08 to 2e-07 M; for `CCNc1nnc(N2CCN(C(C)c3ccc4c(c3)OCO4)CC2)s1` (racemic) [Example 112, 5-(4-(1-(benzo[d][1,3]dioxol-5-yl)ethyl)piperazin-1-yl)-N-ethyl-1,3,4-thiadiazol-2-amine]: 5e-08 to 2e-07 M. Still for that read-out and setting: under `Cc1noc(C2CCN(C(C)c3ccc4c(c3)OCO4)CC2)n1` (racemic) [Example 4, 5-(1-(1-(Benzo[d][1,3]dioxol-5-yl)ethyl)piperidin-4-yl)-3-methyl-1,2,4-oxadiazole] stands 2e-07 to 1e-06 M. For the compound `CCC(=O)Nc1nnc(N2CCN(C(C)c3ccc4c(c3)OCO4)CC2)s1` (racemic) [Example 105, N-(5-(4-(1-(benzo[d][1,3]dioxol-5-yl)ethyl)piperazin-1-yl)-1,3,4-thiadiazol-2-yl)propionamide], the 50% inhibitory concentration (IC50) is under 5e-08 M. Turning to `CC(c1ccc2c(c1)OCO2)N1CCN(c2ccnc(N)n2)CC1` (racemic) [Example 46, 4-(4-(1-(Benzo[d][1,3]dioxol-5-yl)ethyl)piperazin-1-yl)pyrimidin-2-amine], the IC50 fell in the range of 5e-08 to 2e-07 M.

Regarding `CC(c1ccc2c(c1)OCO2)N1CCN(c2ccc(Cl)cn2)CC1` (racemic) [Example 20], the IC50 was 2e-07 to 1e-06 M. The same measure, in the same setting: the same measure for `CCOC(=O)c1ccc(N2CCN([C@@H](C)c3ccc4c(c3)OCO4)CC2)nc1` [Example 183, Ethyl (S)-6-(4-(1-(benzo[d][1,3]dioxol-5-yl)ethyl)piperazin-1-yl)nicotinate]: 5e-08 to 2e-07 M; for `C[C@@H](c1ccc2c(c1)OCO2)N1CCN(c2nnc(N)s2)CC1` [Example 132, (S)-5-(4-(1-(benzo[d][1,3]dioxol-5-yl)ethyl)piperazin-1-yl)-1,3,4-thiadiazol-2-amine]: under 5e-08 M; for `C[C@@H](c1ccc2c(c1)OCO2)N1CCN(c2nc3ccccc3s2)CC1` [Example 136, (S)-2-(4-(1-(benzo[d][1,3]dioxol-5-yl)ethyl)piperazin-1-yl)benzo[d]thiazole]: 2e-07 to 1e-06 M. For `CC(O)c1cnc(N2CCN([C@@H](C)c3ccc4c(c3)OCO4)CC2)nc1` (stereo partly drawn) [Example 168, 1-(2-(4-((S)-1-(benzo[d][1,3]dioxol-5-yl)ethyl)piperazin-1-yl)pyrimidin-5-yl)ethan-1-ol], the IC50 is under 5e-08 M.

On to `C[C@@H](c1ccc2c(c1)OCO2)N1CCN(c2ncc(C3(O)CCOC3)cn2)CC1` (stereo partly drawn) [Example 189, 3-(2-(4-((S)-1-(benzo[d][1,3]dioxol-5-yl)ethyl)piperazin-1-yl)pyrimidin-5-yl)tetrahydrofuran-3-ol], for which the half-inhibitory concentration (IC50) is under 5e-08 M. The same measure, in the same setting: under `CC(=O)Nc1cnc(N2CCN(C(C)c3ccc4c(c3)OCC4)CC2)nc1` (racemic) [Example 129, N-(2-(4-(1-(2,3-dihydrobenzofuran-6-yl)ethyl)piperazin-1-yl)pyrimidin-5-yl)acetamide] stands under 5e-08 M.

As for `CC(c1ccc2c(c1)OCO2)N1CCN(c2nc(C(N)=O)cs2)CC1` (racemic) [Example 35, 2-(4-(1-(Benzo[d][1,3]dioxol-5-yl)ethyl)piperazin-1-yl)thiazole-4-carboxamide], the IC50 lay in the range of 5e-08 to 2e-07 M. For `CC(c1ccc2c(c1)OCO2)N1CCN(c2ncc3cc[nH]c3n2)CC1` (racemic) [Example 113, 2-(4-(1-(benzo[d][1,3]dioxol-5-yl)ethyl)piperazin-1-yl)-7H-pyrrolo[2,3-d]pyrimidine], the IC50 is 5e-08 to 2e-07 M. Still for that read-out and setting: the same measure for `CCc1csc(N2CCN(C(C)c3ccc4c(c3)OCO4)CC2)n1` (racemic) [Example 19, 2-(4-(1-(Benzo[d][1,3]dioxol-5-yl)ethyl)piperazin-1-yl)-4-ethylthiazole]: 2e-07 to 1e-06 M. Consider “N-((2-(4-(1-(benzo[d][1,3]dioxol-5-yl)ethyl)piperazin-1-yl)thiazol-4-yl)methyl)acetamide [Example 85]”, for which the half-inhibitory concentration (IC50) was under 5e-08 M. Regarding `CCOC(=O)c1cnc(N2CCN(C(C)c3ccc4nccnc4c3)CC2)s1` (racemic) [Example 90, Ethyl-2-(4-(1-(quinoxalin-6-yl)ethyl)piperazin-1-yl)thiazole-5-carboxylate], the IC50 is 2e-07 to 1e-06 M.

`CC(=O)Nc1cnc(N2CCN(C(C)c3ccc4scnc4c3)CC2)nc1` (racemic) [Example 116, N-(2-(4-(1-(benzo[d]thiazol-5-yl)ethyl)piperazin-1-yl)pyrimidin-5-yl)acetamide]: the half-maximal inhibitory concentration (IC50) was under 5e-08 M. As to `CC(=O)c1cnc(N2CCN([C@@H](C)c3ccc4c(c3)OCO4)CC2)nc1` [Example 167, (S)-1-(2-(4-(1-(benzo[d][1,3]dioxol-5-yl)ethyl)piperazin-1-yl)pyrimidin-5-yl)ethan-1-one], the IC50 was under 5e-08 M.

Consider `CC(O)c1cnc(N2CCN([C@@H](C)c3ccc4c(c3)OCO4)CC2)nc1` (single isomer, unassigned) [Example 197], for which the IC50 is under 5e-08 M. The same measure, in the same setting: the same measure for `CC(c1ccc2c(c1)OCO2)N1CCN(c2ncc3ccccc3n2)CC1` (racemic) [Example 119, 2-(4-(1-(benzo[d][1,3]dioxol-5-yl)ethyl)piperazin-1-yl)quinazoline]: 5e-08 to 2e-07 M; for `CC(c1ccc2c(c1)OCO2)N1CCN(c2cnc(Cl)cn2)CC1` (racemic) [Example 25]: 5e-08 to 2e-07 M. For the compound `CNC(=O)c1cnc(N2CCN(C(C)c3ccc4c(c3)OCCO4)CC2)s1` (racemic) [Example 109, 2-(4-(1-(2,3-dihydrobenzo[b][1,4]dioxin-6-yl)ethyl)piperazin-1-yl)-N-methylthiazole-5-carboxamide], the IC50 was under 5e-08 M. With `Cc1cnn(C2CCN(C(C)c3ccc4c(c3)OCO4)CC2)c1` (racemic) [Example 3, 1-(1-(benzo[d][1,3]dioxol-5-yl)ethyl)-4-(4-methyl-1H-pyrazol-1-yl)piperidine], the half-maximal inhibitory concentration (IC50) was 1e-06 to 1e-05 M. In the case of `CC(c1ccc2c(c1)OCO2)N1CCN(c2ncc(Cl)cn2)CC1` (racemic) [Example 38], the half-maximal inhibitory concentration (IC50) lay in the range of 5e-08 to 2e-07 M. Still for that read-out and setting: the same measure for `CC(c1ccc2c(c1)OCO2)N1CCN(c2nccc(N)n2)CC1` (racemic) [Example 22, 2-(4-(1-(Benzo[d][1,3]dioxol-5-yl)ethyl)piperazin-1-yl)pyrimidin-4-amine]: 5e-08 to 2e-07 M; for `CCNc1nnc(N2CCN([C@@H](C)c3ccc4c(c3)OCO4)CC2)s1` [Example 141, (S)-5-(4-(1-(benzo[d][1,3]dioxol-5-yl)ethyl)piperazin-1-yl)-N-ethyl-1,3,4-thiadiazol-2-amine]: 5e-08 to 2e-07 M; for `CC(c1ccc2c(c1)OCO2)N1CCN(c2cnc(I)nc2)CC1` (racemic) [Example 8, -5-(4-(1-(benzo[d][1,3]dioxol-5-yl)ethyl)piperazin-1-yl)-2-iodopyrimidine]: 5e-08 to 2e-07 M. As to `CC(=O)Nc1nnc(N2CCN(C(C)c3ccc4nsnc4c3)CC2)s1` (racemic) [Example 123, N-(5-(4-(1-(benzo[c][1,2,5]thiadiazol-5-yl)ethyl)piperazin-1-yl)-1,3,4-thiadiazol-2-yl)acetamide], the IC50 was under 5e-08 M. In the case of `CC(c1ccc2nccnc2c1)N1CCN(c2nc3ccccc3s2)CC1` (racemic) [Example 135, 2-(4-(1-(quinoxalin-6-yl)ethyl)piperazin-1-yl)benzo[d]thiazole], the IC50 fell in the range of 1e-06 to 1e-05 M. On to `CNC(=O)c1csc(N2CCN(C(C)c3ccc4c(c3)OCCO4)CC2)n1` (racemic) [Example 50, 2-(4-(1-(2,3-dihydrobenzo[b][1,4]dioxin-6-yl)ethyl)piperazin-1-yl)-N-methylthiazole-4-carboxamide], for which the concentration for half-maximal inhibition (IC50) lay within 5e-08 to 2e-07 M.

Turning to `CC(=O)Nc1nnc(N2CCN(C(C)c3ccc4scnc4c3)CC2)s1` (single isomer, unassigned) [Example 133, (S)-N-(5-(4-(1-(benzo[d]thiazol-5-yl)ethyl)piperazin-1-yl)-1,3,4-thiadiazol-2-yl)acetamide or ((R)-N-(5-(4-(1-(benzo[d]thiazol-5-yl)ethyl)piperazin-1-yl)-1,3,4-thiadiazol-2-yl)acetamide], the half-inhibitory concentration (IC50) was under 5e-08 M. Consider `CSc1ccc(N2CCN([C@@H](C)c3ccc4c(c3)OCO4)CC2)nc1` [Example 192, (S)-1-(1-(benzo[d][1,3]dioxol-5-yl)ethyl)-4-(5-(methylthio)pyridin-2-yl)piperazine], for which the half-inhibitory concentration (IC50) was under 5e-08 M. As to `C[C@@H](c1ccc2c(c1)OCO2)N1CCN(c2ncc(C(C)(C)O)cn2)CC1` [Example 176, (S)-2-(2-(4-(1-(benzo[d][1,3]dioxol-5-yl)ethyl)piperazin-1-yl)pyrimidin-5-yl)propan-2-ol], the 50% inhibitory concentration (IC50) was under 5e-08 M.

Still in this assay, the particulars now being: measured according to Example B01.
In the case of `C[C@@H](c1ccc2c(c1)OCO2)N1CCN(c2ncc(C3(O)CCCC3)cn2)CC1` [Example 181, (S)-1-(2-(4-(1-(benzo[d][1,3]dioxol-5-yl)ethyl)piperazin-1-yl)pyrimidin-5-yl)cyclopentan-1-ol], the “OGA inhibitor activity (in words)” value is given as “very potent OGA inhibitors”. On the same count and under the same terms, under `C[C@@H](c1ccc2c(c1)OCO2)N1CCN(c2nc3c(s2)CNCC3)CC1` [Example 182, (S)-2-(4-(1-(benzo[d][1,3]dioxol-5-yl)ethyl)piperazin-1-yl)-4,5,6,7-tetrahydrothiazolo[5,4-c]pyridine] stands “very potent OGA inhibitors”.

In the case of `C[C@@H](c1ccc2c(c1)OCO2)N1CCN(c2nnc(N)s2)CC1` [Example 132, (S)-5-(4-(1-(benzo[d][1,3]dioxol-5-yl)ethyl)piperazin-1-yl)-1,3,4-thiadiazol-2-amine], the “OGA inhibitor activity (in words)” value is recorded as “very potent OGA inhibitors”. In the case of `CC(O)c1cnc(N2CCN([C@@H](C)c3ccc4c(c3)OCO4)CC2)nc1` (stereo partly drawn) [Example 168, 1-(2-(4-((S)-1-(benzo[d][1,3]dioxol-5-yl)ethyl)piperazin-1-yl)pyrimidin-5-yl)ethan-1-ol], the “OGA inhibitor activity (in words)” value is “very potent OGA inhibitors”. With `CC(=O)Nc1cnc(N2CCN(C(C)c3ccc4c(c3)OCC4)CC2)nc1` (racemic) [Example 129, N-(2-(4-(1-(2,3-dihydrobenzofuran-6-yl)ethyl)piperazin-1-yl)pyrimidin-5-yl)acetamide], the “OGA inhibitor activity (in words)” value is “very potent OGA inhibitors”. Take `CC(=O)Nc1cnc(N2CCN(C(C)c3ccc4scnc4c3)CC2)nc1` (racemic) [Example 116, N-(2-(4-(1-(benzo[d]thiazol-5-yl)ethyl)piperazin-1-yl)pyrimidin-5-yl)acetamide]: the “OGA inhibitor activity (in words)” value is reported as “very potent OGA inhibitors”. The same measure, in the same setting: the same measure for `C[C@@H](c1ccc2c(c1)OCO2)N1CCN(c2ncc(C(C)(C)O)cn2)CC1` [Example 176, (S)-2-(2-(4-(1-(benzo[d][1,3]dioxol-5-yl)ethyl)piperazin-1-yl)pyrimidin-5-yl)propan-2-ol]: “very potent OGA inhibitors”.
